Counter-ions that a name gives are not always drawn. Like-named read-outs stand apart in the source and are kept apart here.
Assays:
FLT3 = target: T1, FLT3 (Homo sapiens, UniProt P36888); experiment: Binding constant (Kd) measurement, phage-displayed kinase competition binding assay, FLT3
T1 construct: made in house
T1 sequence (P36888 27-993): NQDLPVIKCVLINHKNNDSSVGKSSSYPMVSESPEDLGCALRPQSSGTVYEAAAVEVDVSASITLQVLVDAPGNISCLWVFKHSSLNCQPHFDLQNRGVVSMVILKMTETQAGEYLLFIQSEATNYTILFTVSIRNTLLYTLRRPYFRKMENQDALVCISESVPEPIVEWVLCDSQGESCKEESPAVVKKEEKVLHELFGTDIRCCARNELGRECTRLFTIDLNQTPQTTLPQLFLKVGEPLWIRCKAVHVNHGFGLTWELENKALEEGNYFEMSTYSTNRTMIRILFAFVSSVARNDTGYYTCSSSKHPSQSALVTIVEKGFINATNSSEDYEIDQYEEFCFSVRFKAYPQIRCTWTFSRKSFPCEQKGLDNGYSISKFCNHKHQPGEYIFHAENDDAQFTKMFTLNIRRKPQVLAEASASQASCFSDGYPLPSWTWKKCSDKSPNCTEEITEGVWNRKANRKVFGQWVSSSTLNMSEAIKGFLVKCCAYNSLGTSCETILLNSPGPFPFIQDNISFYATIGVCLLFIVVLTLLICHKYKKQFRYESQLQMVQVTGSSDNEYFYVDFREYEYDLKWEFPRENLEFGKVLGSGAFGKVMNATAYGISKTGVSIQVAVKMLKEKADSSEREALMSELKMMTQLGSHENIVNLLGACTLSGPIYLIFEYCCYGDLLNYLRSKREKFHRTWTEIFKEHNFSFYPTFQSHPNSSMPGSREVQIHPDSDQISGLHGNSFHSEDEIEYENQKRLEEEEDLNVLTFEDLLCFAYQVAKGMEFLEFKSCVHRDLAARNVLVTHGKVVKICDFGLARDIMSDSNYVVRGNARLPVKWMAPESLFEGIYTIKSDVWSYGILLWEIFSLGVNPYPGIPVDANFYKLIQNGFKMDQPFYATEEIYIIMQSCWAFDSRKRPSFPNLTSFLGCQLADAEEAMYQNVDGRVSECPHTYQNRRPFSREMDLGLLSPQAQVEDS
Method: (§1) Binding Constant (Kd) Measurements for Small-Molecule-Kinase Interactions
(§2) By testing across a large class of protein kinases, specificity of the kinase inhibitors provided herein is also determined. The components of the assays include various human kinases expressed as fusions to T7 bacteriophage particles and immobilized ligands that bind to the ATP site of the kinases. […] If the test compound binds the kinase, it competes with the immobilized ligand and prevents binding to the solid support. […] The results are read out by quantitating the amount of fusion protein bound to the solid support, which is accomplished by either traditional phage plaque assays or by quantitative PCR (qPCR) using the phage genome as a template.

MV4-11 cells = experiment: Cellular proliferation assay (MTS), MV4-11; type: cell-based; settings: Homo sapiens; MV4-11 cells, 72 hour incubation, MTS; read-out: Cellular Assay MV-proliferation IC50
From the text: Cellular Proliferation Assay
Cancer cell viability and proliferation can be evaluated using a tetrazolium salt reduction cell-based assay. In viable cells, this colorimetric assay can measure mitochondrial reduction of a tetrazolium component (MTS) into an […] formazan product.
This cell line was used to determine the ability of the compounds provided herein to inhibit Flt3 in intact cells. The RS4-11 cell line, which expresses the wild-type (WT) receptor, is also used as a control to verify the test compound's ability to inhibit the FLT3 receptor containing the ITD mutation.
MV4-11 cells were plated at 10,000 cells per well in DMEM medium with 0.5% serum. RS4-11 cells were plated at 20,000 cells per well in RPMI with 0.5% serum. […] An aliquot from each well of the compound plate was transferred to the plated cells and then incubated @ 37° C. in 5% CO2 (for 3 days for the MV4-11 cells, 2 days for the RS4-11 cells).
MTS tetrazolium compound (Owen's reagent) was thawed in a H2O bath. 20 μl of MTS tetrazolium was added to each well of optical plate and the cells were incubated @ 37° C. in 5% CO2 for 2 hours.

KIT = target: T2, KIT (Homo sapiens, UniProt P10721); experiment: Binding constant (Kd) measurement, phage-displayed kinase competition binding assay, KIT
T2 construct: made in house
Method: as §1, §2

CSF1R = target: T3, CSF1R (Homo sapiens, UniProt P07333); experiment: Binding constant (Kd) measurement, phage-displayed kinase competition binding assay, CSF1R
T3 construct: made in house
Method: as §1, §2

[1] = read-out: Binding Assay FLT3 Kd

T3 sequence (P07333 20-972): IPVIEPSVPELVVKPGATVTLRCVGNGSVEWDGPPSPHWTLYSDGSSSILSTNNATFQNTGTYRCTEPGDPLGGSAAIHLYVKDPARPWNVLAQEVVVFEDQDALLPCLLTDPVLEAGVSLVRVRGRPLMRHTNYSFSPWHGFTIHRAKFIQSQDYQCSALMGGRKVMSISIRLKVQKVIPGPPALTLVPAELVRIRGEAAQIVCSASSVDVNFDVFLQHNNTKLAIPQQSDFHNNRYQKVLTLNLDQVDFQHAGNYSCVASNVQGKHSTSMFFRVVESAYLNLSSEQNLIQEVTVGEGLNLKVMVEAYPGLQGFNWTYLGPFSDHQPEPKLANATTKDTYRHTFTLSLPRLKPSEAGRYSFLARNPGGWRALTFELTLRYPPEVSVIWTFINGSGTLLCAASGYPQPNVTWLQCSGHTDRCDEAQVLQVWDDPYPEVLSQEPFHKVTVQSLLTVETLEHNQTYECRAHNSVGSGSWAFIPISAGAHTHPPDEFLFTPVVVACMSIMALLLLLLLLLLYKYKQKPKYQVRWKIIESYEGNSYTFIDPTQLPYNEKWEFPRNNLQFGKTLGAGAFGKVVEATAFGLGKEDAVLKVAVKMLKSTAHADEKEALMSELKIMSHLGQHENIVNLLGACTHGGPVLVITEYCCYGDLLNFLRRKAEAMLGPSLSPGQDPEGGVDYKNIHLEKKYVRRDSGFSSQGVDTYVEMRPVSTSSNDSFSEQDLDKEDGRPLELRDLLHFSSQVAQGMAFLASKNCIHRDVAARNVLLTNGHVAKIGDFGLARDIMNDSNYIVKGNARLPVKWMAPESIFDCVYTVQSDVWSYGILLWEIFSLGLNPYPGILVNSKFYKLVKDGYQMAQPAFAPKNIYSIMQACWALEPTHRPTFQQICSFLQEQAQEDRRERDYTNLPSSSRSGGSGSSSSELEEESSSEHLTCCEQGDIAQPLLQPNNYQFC
T2 sequence (P10721 26-976): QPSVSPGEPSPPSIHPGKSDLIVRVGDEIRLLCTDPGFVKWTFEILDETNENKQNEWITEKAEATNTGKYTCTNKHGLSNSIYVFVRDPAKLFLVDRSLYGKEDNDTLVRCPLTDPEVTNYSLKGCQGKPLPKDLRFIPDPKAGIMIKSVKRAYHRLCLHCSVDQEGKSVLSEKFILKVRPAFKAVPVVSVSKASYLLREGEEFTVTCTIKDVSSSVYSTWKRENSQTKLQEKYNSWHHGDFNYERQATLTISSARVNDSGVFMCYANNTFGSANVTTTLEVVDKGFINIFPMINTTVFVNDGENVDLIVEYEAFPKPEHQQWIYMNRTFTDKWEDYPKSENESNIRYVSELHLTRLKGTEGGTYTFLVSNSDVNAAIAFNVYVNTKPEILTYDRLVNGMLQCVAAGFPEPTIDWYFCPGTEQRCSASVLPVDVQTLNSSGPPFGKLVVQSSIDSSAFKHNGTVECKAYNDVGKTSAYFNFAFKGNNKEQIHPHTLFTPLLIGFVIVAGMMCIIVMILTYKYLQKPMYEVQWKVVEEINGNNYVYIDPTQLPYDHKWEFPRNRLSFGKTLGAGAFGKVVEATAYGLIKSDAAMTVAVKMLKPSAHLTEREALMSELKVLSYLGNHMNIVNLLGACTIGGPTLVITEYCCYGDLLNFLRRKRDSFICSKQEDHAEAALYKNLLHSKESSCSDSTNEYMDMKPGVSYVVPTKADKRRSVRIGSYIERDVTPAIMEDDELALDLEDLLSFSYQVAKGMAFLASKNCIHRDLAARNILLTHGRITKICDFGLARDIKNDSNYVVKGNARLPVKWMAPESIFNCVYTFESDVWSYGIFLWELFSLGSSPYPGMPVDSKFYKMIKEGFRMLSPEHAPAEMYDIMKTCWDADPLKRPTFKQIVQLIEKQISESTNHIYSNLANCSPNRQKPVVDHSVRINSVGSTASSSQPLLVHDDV

Row | SMILES | IC50 (MV4-11 cells) | Kd (KIT) | Kd (CSF1R) | Kd (FLT3; [1]) | Kd (FLT3)
1 | CC(C)[C@@H](N)C(=O)Oc1ccc2c(c1)sc1nc(-c3ccc(NC(=O)Nc4cc(C(C)(C)C)on4)cc3)cn12 [Compound B5, (2R)-2-amino-3-methyl-butyric acid 2-{4-[3-(5-tert-butyl-isoxazol-3-yl)-ureido]-phenyl}-benzo[d]imidazo[2,1-b]thiazol-7-yl ester] | < 10 nM | 10 to 100 nM | 10 to 100 nM |  | < 10 nM
2 | CC(C)(C)c1cc(NC(=O)Nc2ccc(-c3cn4c(n3)sc3cc(OCCCN5CCOCC5)ccc34)cc2)no1 [Compound B7, 1-(5-tert-butyl-isoxazol-3-yl)-3-{4-[7-(3-morpholin-4-yl-propoxy)-benzo[d]imidazo[2,1-b]thiazol-2-yl]-phenyl}-urea hydrochloride] | < 10 nM | 10 to 100 nM | 10 to 100 nM | < 10 nM | 
3 | CC(C)(C)c1cc(NC(=O)Nc2ccc(-c3cn4c(n3)sc3cc(OCCCN5CCSCC5)ccc34)cc2)no1 [Compound B8, 1-(5-tert-Butyl-isoxazol-3-yl)-3-{4-[7-(3-thiomorpholin-4-yl-propoxy)-benzo[d]imidazo[2,1-b]thiazol-2-yl]-phenyl}-urea] | 10 to 100 nM | 10 to 100 nM | 10 to 100 nM |  | < 10 nM
4 | CC(C)(C)c1cc(NC(=O)Nc2ccc(-c3cn4c(n3)sc3cc(OCCCN5CCN(S(C)(=O)=O)CC5)ccc34)cc2)no1 [Compound B10, 1-(5-tert-butyl-isoxazol-3-yl)-3-(4-{7-[3-(4-methanesulfonyl-piperazin-1-yl)-propoxy]-benzo[d]imidazo[2,1-b]thiazol-2-yl}-phenyl)-urea] | < 10 nM | 10 to 100 nM | 10 to 100 nM | < 10 nM | 
5 | CC(C)(C)c1cc(NC(=O)Nc2ccc(-c3cn4c(n3)sc3cccc(OCCN5CCOCC5)c34)cc2)no1 [Compound B11, N-(5-tert-butyl-isoxazol-3-yl)-N′-{4-[5-(2-morpholin-4-yl-ethoxy)imidazo[2,1-b][1,3]benzothiazol-2-yl]phenyl}urea hydrochloride] | < 10 nM | 10 to 100 nM | 100 to 1000 nM | < 10 nM | 
6 | CC(C)(C)c1cc(NC(=O)Nc2ccc(-c3cn4c(n3)sc3ccc(OCCN5CCOCC5)cc34)cc2)no1 [Compound B12, N-(5-tert-butyl-isoxazol-3-yl)-N′-{4-[6-(2-morpholin-4-yl-ethoxy)imidazo[2,1-b][1,3]benzothiazol-2-yl]phenyl}urea hydrochloride] | < 10 nM | 10 to 100 nM | 100 to 1000 nM | < 10 nM | 
7 | CC(C)(C)c1cc(NC(=O)Nc2cccc(-c3cn4c(n3)sc3cc(OCCN5CCOCC5)ccc34)c2)no1 [Compound B13, N-(5-tert-butyl-isoxazol-3-yl)-N′-{3-[7-(2-morpholin-4-yl-ethoxy)imidazo[2,1-b][1,3]benzothiazol-2-yl]phenyl}urea] | > 100 nM | > 1000 nM | > 1000 nM | 100 to 1000 nM | 
8 | CCOC(=O)c1ccc2c(c1)sc1nc(-c3cccc(NC(=O)Nc4cc(C(C)(C)C)on4)c3)cn12 [Compound B14, 2-{3-[3-(5-tert-Butyl-isoxazol-3-yl)-ureido]-phenyl}-imidazo[2,1-b][1,3]benzothiazole-7-carboxylic acid ethyl ester] | > 100 nM | > 1000 nM | > 1000 nM | > 1000 nM | 
9 | CCOC(=O)CCc1ccc2c(c1)sc1nc(-c3ccc(NC(=O)Nc4cc(C(C)(C)C)on4)cc3)cn12 [Compound C3, Ethyl 3-{2-[4-({[(5-tert-Butylisoxazol-3-yl)amino]carbonyl}amino)phenyl]imidazo[2,1-b][1,3]benzothiazol-7-yl}propanoate] | < 10 nM | 10 to 100 nM | > 1000 nM |  | < 10 nM
10 | CCN(CC)C(=O)CCc1ccc2c(c1)sc1nc(-c3ccc(NC(=O)Nc4cc(C(C)(C)C)on4)cc3)cn12 [Compound C8, 3-(2-{4-[3-(5-tert-butyl-isoxazol-3-yl)-ureido]-phenyl}-benzo[d]imidazo[2,1-b]thiazol-7-yl)-N,N-diethyl-propionamide] | < 10 nM | < 10 nM | 10 to 100 nM |  | < 10 nM
11 | CC(C)(C)c1cc(NC(=O)Nc2ccc(-c3cn4c(n3)sc3cc(CCC(=O)NCCN5CCCC5)ccc34)cc2)no1 [Compound C11, 3-(2-{4-[3-(5-tert-butyl-isoxazol-3-yl)-ureido]-phenyl}-benzo[d]imidazo[2,1-b]thiazol-7-yl)-N-(2-pyrrolidin-1-yl-ethyl)-propionamide hydrochloride] | < 10 nM | < 10 nM | < 10 nM |  | < 10 nM

Continued, in another order:

Row | IC50 (MV4-11 cells) | Kd (KIT) | Kd (CSF1R) | Kd (FLT3; [1]) | SMILES | Kd (FLT3)
12 | < 10 nM | < 10 nM | 10 to 100 nM | < 10 nM | CC(C)(C)c1cc(NC(=O)Nc2ccc(-c3cn4c(n3)sc3cc(CCC(=O)O)ccc34)cc2)no1 [Compound C4, 3-{2-[4-({[(5-tert-butylisoxazol-3-yl)amino]carbonyl}amino)phenyl]imidazo[2,1-b][1,3]benzothiazol-7-yl}propanoic acid] | 
13 | < 10 nM | < 10 nM | 10 to 100 nM | < 10 nM | CCN1CCN(C(=O)CCc2ccc3c(c2)sc2nc(-c4ccc(NC(=O)Nc5cc(C(C)(C)C)on5)cc4)cn23)CC1 [Compound C5, N-(5-tert-Butyl-isoxazol-3-yl)-N′-(4-{7-[3-(4-ethyl-piperazin-1-yl)-3-oxo-propyl]imidazo[2,1-b][1,3]benzothiazol-2-yl}phenyl)urea] | 
14 | < 10 nM | < 10 nM | 10 to 100 nM | < 10 nM | CC(C)(C)c1cc(NC(=O)Nc2ccc(-c3cn4c(n3)sc3cc(CCC(=O)N5CCOCC5)ccc34)cc2)no1 [Compound C7, N-(5-tert-butyl-isoxazol-3-yl)-N′-{4-[7-(3-morpholino-4-yl-3-oxo-propyl)imidazo[2,1-b][1,3]benzothiazol-2-yl]phenyl}urea] | 
15 | < 10 nM | < 10 nM | < 10 nM | < 10 nM | CC(C)(C)c1cc(NC(=O)Nc2ccc(-c3cn4c(n3)sc3cc(CCC(=O)NCCN5CCOCC5)ccc34)cc2)no1 [Compound C9, 3-(2-{4-[3-(5-tert-butyl-isoxazol-3-yl)-ureido]-phenyl}-benzo[d]imidazo[2,1-b]thiazol-7-yl)-N-(2-morpholin-4-yl-ethyl)-propionamide hydrochloride] | 
16 | < 10 nM | < 10 nM | 10 to 100 nM | < 10 nM | CC(C)(C)c1cc(NC(=O)Nc2ccc(-c3cn4c(n3)sc3cc(CCC(=O)NCCN5CCCCC5)ccc34)cc2)no1 [Compound C10, 3-(2-{4-[3-(5-tert-butyl-isoxazol-3-yl)-ureido]-phenyl}-benzo[d]imidazo[2,1-b]thiazol-7-yl)-N-(2-piperidin-1-yl-ethyl)-propionamide hydrochloride] | 
17 | < 10 nM | < 10 nM | 10 to 100 nM |  | CC(C)(C)c1cc(NC(=O)Nc2ccc(-c3cn4c(n3)sc3cc(C(=O)NCCN5CCCCC5)ccc34)cc2)no1 [Compound C20, 2-{4-[3-(5-tert-butyl-isoxazol-3-yl)-ureido]-phenyl}-imidazo[2,1-b][1,3]benzothiazole-7-carboxylic Acid (2-Piperidin-1-yl-ethyl)-amide hydrochloride] | 
18 |  | < 10 nM | > 1000 nM | < 10 nM | O=C(Nc1ccc(-c2cn3c(n2)sc2cc(OCCN4CCOCC4)ccc23)cc1)Nc1ccc2c(c1)OCO2 [Compound F3] | 

— patent US8921546B2, “Imidazolothiazole compounds for the treatment of disease” (Ambit Biosciences Corporation, priority 2006, dated 2014)
